From patent publication US12453709B2, “Compositions and methods for treating autism” (priority 2013, dated 2025)

Tests used:
[1] = test system: male patients diagnosed with autism; test: Study HT 02-121: Autism Diagnostic Observation Schedule (ADOS-2); type: in vivo, human; settings: for ADOS-2 Restricted and Repetitive Behavior Mean Change from Screening / ADOS-2 Restricted and Repetitive Behavior Treatment effect versus placebo / ADOS-2 Restricted and Repetitive Behavior change, median / ADOS-2 Social Affect Mean Change from Screening / ADOS-2 Social Affect Treatment effect versus placebo / ADOS-2 Social Affect change, median / ADOS-2 Total Score Mean Change from Screening / ADOS-2 Total Score Treatment effect versus placebo / ADOS-2 Total Score change from Screening, median: Week 4/LOCF
Method: This clinical study was a randomized double-blind, placebo-controlled two-cohort, 4-week dose-escalation study that incorporated two open-label treatment groups to assess the safety and efficacy of L1-79 100 mg and 200 mg TID in male patients between the ages of […] years of age diagnosed with autism. The first cohort of 20 patients was comprised of three groups of patients: The first group of five patients received open-label L1-79 100 mg TID and underwent PK and EKG assessments. The remaining two groups in this cohort consisted of 15 patients randomized on a 2:1 basis to receive L1-79 100 mg TID or placebo. The PK and safety data from the open-label L1-79 100 mg TID group was submitted to FDA for review and acceptance before the second cohort was enrolled. The second cohort was procedurally identical to the first. The second cohort of 20 patients was comprised of the same three groups of patients but a dose of 200 mg TID was used instead of 100 mg TID. The key inclusion criteria were as follows: (1) males between 13 and 21 years of age, (2) DSM-5 compliant diagnosis of autism spectrum disorder, confirmed by the Autistic Diagnosis Interview Review (ADIR), and by an ADOS-2 score consistent with a diagnosis of autism, (3) must have been stable on no more than one concomitant medication and no planned changes in psychosocial interventions during the study.
The primary efficacy endpoint was the determination of the clinical improvement by the investigator as documented by the Clinical Global Impression (CGI) rating scales. Additional efficacy endpoints included: (1) changes from baseline in the Socialization and Communication Domains of the Vineland Adaptive Behavior Scales, Second Edition (VABS II) parent/caregiver rating form, (2) changes from baseline in the ADOS-2 Total Score and subscores, (3) changes in the Social Responsiveness Scale, Second Edition (SRS-2) Total Score and subscales, (4) changes in the ABC-C domains, (5) changes in the Repetitive Behavior Scale-Revised (RBS-R) Total Score and subscales. Given the exploratory design of this study only descriptive statistics were planned.
In the preliminary study, all forms were completed at the study site in the presence of the investigator. In Cohort 1 of the present study, the VABS-II, SRS-2, ABC-C and RBS-R were filled out at home by the patient/patient's families prior to treatment visits and returned at treatment visits in order to expedite the execution of the study.

[2] = test system: male patients diagnosed with autism; test: Study HT 02-121: ECGs and laboratory evaluations; type: in vivo, human
Method: (§1) The first five patients in each cohort were assigned to receive active medication in an open-label fashion. The patients were treated identically to the randomized patients with the following exceptions: (1) blood samples were drawn at baseline and 1 hour after dosing, and at Week 1, 2, 3 and 4 treatment visits 1 hour after dosing to determine the PK of L1-79, (2) EKGs were assessed at baseline and within 3-days prior to the Week 1, 2, 3 and 4 treatment visits as well as the 1-week and 4-week post-dosing follow-up visits, (3) vital signs, physical exams, and ASD assessments were performed at 1-week postdosing visit, (4) blood and urine samples were drawn at baseline and at Week 1, 2, 3 and 4 treatment visits 1 hour after dosing as well as the 1-week and 4-week post-dosing follow-up visits for safety analyses.
Safety was the primary endpoint of the study. The following safety endpoints were assessed: ECGs, physical exams, laboratory evaluations (hematology, chemistry and urinalysis), vital signs, including orthostatic blood pressure, adverse events (AEs) and concomitant medications.
Of note was the observation that half (50%) of the patients on L1-79 developed crystalluria compared to 30% of placebo treated patients. Of those that developed crystalluria during the study, approximately half (50%) had concentrated urine (specific gravity>1.025). […]

[3] = test system: patients qualified under the DSM-5 definition of autism; test: Example 4: adverse events and clinical observation; type: in vivo, human
Method: α-methyl-DL tyrosine (AMPT) was administered to 3 patients. This group of patients was qualified under the DSM-5 definition of autism and treated.

[4] = Study HT 02-121: L1-79 plasma concentrations (pharmacokinetics); type: in vivo; settings: male, human, open-label 200 mg TID, read-out: plasma concentration at 1-hour post-dose on Day 1
Method: as §1
Pharmacokinetics were assessed in the open-label 100 mg and 200 mg TID patients. On Day 1, L-79 concentrations were assessed one-hour post dose. Subsequently, a random L1-79 plasma concentration was assessed at Week 1, Week 2, Week 3 and Week 4.

- concentration at 1 h [4]: 23 to 1680 ng/mL
Compound: CC(N)(Cc1ccc(O)cc1)C(=O)O (racemic) [L1-79, α-methyl-DL-tyrosine]
- ADOS-2 Restricted and Repetitive Behavior Mean Change from Screening ([1]; DB 100 mg TID): 0.3
- ADOS-2 Restricted and Repetitive Behavior Treatment effect versus placebo ([1]; DB 100 mg TID): 0.5
- ADOS-2 Restricted and Repetitive Behavior change, median ([1]; DB 100 mg TID): −1, 0, 1
- ADOS-2 Social Affect Mean Change from Screening ([1]; DB 100 mg TID): −0.9
- ADOS-2 Social Affect Treatment effect versus placebo ([1]; DB 100 mg TID): −1.0
- ADOS-2 Social Affect change, median ([1]; DB 100 mg TID): −2, 0, 1
- ADOS-2 Total Score Mean Change from Screening ([1]; DB 100 mg TID): −0.6
- ADOS-2 Total Score Treatment effect versus placebo ([1]; DB 100 mg TID): −0.6
- ADOS-2 Total Score change from Screening, median ([1]; DB 100 mg TID): −1, 0, 0
- ADOS-2 Restricted and Repetitive Behavior Mean Change from Screening ([1]; DB 200 mg TID): −1.0
- ADOS-2 Restricted and Repetitive Behavior Treatment effect versus placebo ([1]; DB 200 mg TID): −0.9
- ADOS-2 Restricted and Repetitive Behavior change, median ([1]; DB 200 mg TID): −2, −1, 0
- ADOS-2 Social Affect Mean Change from Screening ([1]; DB 200 mg TID): 0.0
- ADOS-2 Social Affect Treatment effect versus placebo ([1]; DB 200 mg TID): −0.1
- ADOS-2 Social Affect change, median ([1]; DB 200 mg TID): −1, 1, 1
- ADOS-2 Total Score Mean Change from Screening ([1]; DB 200 mg TID): −1.0
- ADOS-2 Total Score Treatment effect versus placebo ([1]; DB 200 mg TID): −1.0
- ADOS-2 Total Score change from Screening, median ([1]; DB 200 mg TID): −1, −1, 0
- improvement from baseline in ADOS-2 scores ([1]; less than one month of treatment): nearly one point
- changes from baseline EKGs ([2]; any of the patients): No clinically significant changes
- patients who developed crystalluria ([2]; patients on L1-79, placebo 30%): 50%
- adverse events reported ([3]; Example 4 patients): mild tiredness on the first day of dosing in two patients
- clinical improvements, onset and durability ([3]; Example 4 patients): begin quickly and are durable
- Adverse Events ([3]; patient 01-001, 90 TID): None
- Adverse Events ([3]; patient 01-002, 90 TID): None
- Adverse Events ([3]; patient 01-003, 90 TID): None
